# Where two headings read alike, the source gives them in different places.
# How the values were obtained:
# [1] = target: T1, endogenous CB2R (Homo sapiens, UniProt P34972); assay: pERK assay in Jurkat cells; assay type: cell-based
# T1 construct: endogenous CB2R in human Jurkat cells; endogenous in cells; host or cells: Jurkat cells
# Experimental: ERK phosphorylation in response to RG7774 treatment was measured in Jurkat cells as described in ([Saroz et al., 2019]) using the AlphaLISA SureFire Ultra p-Erk1/2 assay (PerkinElmer, Waltham, MA, United States). Cells (200,000 per 96 well plate) were seeded in 40 μL RPMI 1640 assay medium (Fisher Scientific, Schwerte, Germany) containing 10% FCS, 2 mM L-Glu, and 25 mM HEPES) and incubated for 1 h at 37°C in 5% CO2. Cells were treated with increasing concentrations of RG7774 in 40 μL assay medium. Plates were shaken for 30 s (sec) at 450 rpm, incubated for 2 min at 37°C in 5% CO2, and placed on ice. Ice-cold lysis buffer (20 μL 5x) (supplied with the assay kit) was added, plates were shaken (500 rpm) for 10 min at 4°C, and 10 μL of lysate was transferred to a 384-well Optiplate (PerkinElmer, Waltham, MA, United States). The AlphaLISA assay was performed according to the manufacturer’s protocol. Plates were read using Tecan Infinite M1000Pro (excitation 680 nm for 100 ms, integration time 300 ms, and emission 615 nm).
# [2] = target: T2, Human 5-LOX (Homo sapiens, UniProt P09917); assay: Human 5-LOX assay; assay type: biochemical; conditions: RG7774 10 µM; read-out: Mean ± SEM % inhibition of control, Human 5-LOX
# T2 construct: purchased Cayman Chemical Company #60402
# T2 sequence (P09917 whole entry): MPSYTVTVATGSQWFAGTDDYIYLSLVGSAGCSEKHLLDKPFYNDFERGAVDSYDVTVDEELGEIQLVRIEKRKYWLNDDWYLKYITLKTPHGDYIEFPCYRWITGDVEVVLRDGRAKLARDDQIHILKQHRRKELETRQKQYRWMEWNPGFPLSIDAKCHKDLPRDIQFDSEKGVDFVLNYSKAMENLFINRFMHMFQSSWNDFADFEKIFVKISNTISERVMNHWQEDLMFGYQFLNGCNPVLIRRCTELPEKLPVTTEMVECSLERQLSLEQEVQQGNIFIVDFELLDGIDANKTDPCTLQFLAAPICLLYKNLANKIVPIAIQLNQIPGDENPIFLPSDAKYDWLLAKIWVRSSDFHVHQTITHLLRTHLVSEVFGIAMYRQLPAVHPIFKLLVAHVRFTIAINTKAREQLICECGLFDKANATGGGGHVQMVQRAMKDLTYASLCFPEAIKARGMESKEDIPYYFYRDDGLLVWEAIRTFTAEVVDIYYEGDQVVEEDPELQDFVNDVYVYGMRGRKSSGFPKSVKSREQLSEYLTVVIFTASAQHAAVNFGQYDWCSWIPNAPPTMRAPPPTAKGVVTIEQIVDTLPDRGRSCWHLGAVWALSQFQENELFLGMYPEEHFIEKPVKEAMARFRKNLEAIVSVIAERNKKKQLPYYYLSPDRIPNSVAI
# Experimental: The inhibitory effects of different concentrations of RG7774 (0.1-500 µM) on the activities of human recombinant 5-LOX (Cayman Chemical Company #60402), 15-LOX (Cayman Chemical Company #10011263), and human platelet-derived 12-LOX were determined using the Biovision Lipoxygenase Activity Assay Kit (#BVN-K978-100). This kit converts the LOX substrate to an intermediate that reacted with the probe, generating a fluorescent product. The effect of RG7774 (preincubated for 15 min) at 10 µM on LOXs (5-LOX: 0.5 or 1.2 µg; 12-LOX: 20 µg; 15-LOX: 0.23 or 0.3 µg) was ascertained by adding the compounds directly to the incubation medium and the fluorescent signal, recorded at excitation/emission 500/536 nm at 30 sec intervals for 30-40 min, was directly proportional to LOX activity. […] The percentage of human 5-, 12-, and 15-LOX activity (control) was estimated from the amount of oxidized probe in the reaction using a standard curve.
# [3] = target: T3, Human 15-LOX (Homo sapiens, UniProt O15296); assay: Human 15-LOX assay; assay type: biochemical; conditions: RG7774 10 µM; read-out: Mean ± SEM % inhibition of control, Human 15-LOX
# T3 construct: purchased Cayman Chemical Company #10011263
# T3 sequence (O15296 whole entry): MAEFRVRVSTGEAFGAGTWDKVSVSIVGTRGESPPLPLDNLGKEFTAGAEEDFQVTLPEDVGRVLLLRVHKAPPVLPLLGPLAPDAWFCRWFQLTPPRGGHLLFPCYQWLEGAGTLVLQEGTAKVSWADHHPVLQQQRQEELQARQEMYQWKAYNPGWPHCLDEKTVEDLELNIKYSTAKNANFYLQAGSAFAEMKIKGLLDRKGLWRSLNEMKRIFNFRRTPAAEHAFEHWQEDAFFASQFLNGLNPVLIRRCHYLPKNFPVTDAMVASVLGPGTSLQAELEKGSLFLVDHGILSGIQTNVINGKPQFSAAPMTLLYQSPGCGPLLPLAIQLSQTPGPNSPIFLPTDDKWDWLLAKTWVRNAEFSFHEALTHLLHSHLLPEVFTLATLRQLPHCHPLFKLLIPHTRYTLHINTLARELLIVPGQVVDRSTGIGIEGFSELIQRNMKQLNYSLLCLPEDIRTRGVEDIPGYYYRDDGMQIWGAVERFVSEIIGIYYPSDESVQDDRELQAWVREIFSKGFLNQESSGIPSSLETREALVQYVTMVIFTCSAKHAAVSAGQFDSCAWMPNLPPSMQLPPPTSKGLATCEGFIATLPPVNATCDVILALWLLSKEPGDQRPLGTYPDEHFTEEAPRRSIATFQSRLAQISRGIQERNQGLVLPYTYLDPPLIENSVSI
# [4] = Plasma protein binding; assay type: in vitro ADME; conditions: read-out: PPB (fu)
# Experimental: Pooled and frozen plasma from selected species were obtained from commercial suppliers (human […] and mouse […]3-C57; BioreclamationIV, NY, USA). Unbound RG7774 was identified using a 96-well, 150 μL, half-cell capacity Teflon equilibrium dialysis device with a 12–14 kDa molecular weight cut-off membrane (HT-Dialysis; Gales Ferry, CT, USA) to minimize nonspecific binding. RG7774 and positive control (diazepam) were tested with an initial total concentration of 1000 nM (cassettes of 2 to 5 test items). Equal volumes of matrix samples containing RG7774 or diazepam and blank (Soerensen) dialysis buffer were loaded into the opposite compartments of each well. Biological matrix and phosphate buffer were adjusted to pH 7.4 on the day of the experiment. The dialysis block was sealed and incubated at 37 °C in 5% CO2 for 5 h. The seal was removed and matrix and buffer from each dialysis were sampled and analyzed by LC-MS/MS. All protein binding determinations were performed in triplicate. Membrane integrity was tested in the HT-Dialysis device by determining the unbound fraction values for diazepam in each well. At equilibrium, the unbound drug concentration in the biological matrix compartment of the equilibrium dialysis apparatus is the same as the concentration of the compound in the buffer compartment. Thus, the percent unbound fraction was calculated as follows: % fraction unbound = 100 × buffer concentration after dialysis/matrix concentration after dialysis. Device recovery was checked by measuring the concentrations of compound in the matrix before dialysis and calculating the percent recovery (mass balance). Recovery ranging from 80%–120% was required for data acceptance.
# [5] = GSH adduct formation in human liver microsomes; assay type: in vitro ADME
# Experimental: GSH adduct formation assays were conducted as previously described. Briefly, RG7774 was incubated with human liver microsomes to form reactive metabolites, and glutathione was added as a nucleophile to convert the reactive metabolites into stable conjugates that could be analyzed by MS.
# [6] = Ocular tissue PK in rats; assay type: in vivo; conditions: 26 days of oral administration, 3 and 30 mg/kg/day
# Experimental: The plasma PK profile of RG7774 was assessed in adult male C57BL/6J mice and female Wistar rats (Charles River, Cologne, Germany) housed in a controlled environment (temperature, humidity, and 12 h light/dark cycle) with unrestricted access to food and water. The ocular PK profile of RG7774 was assessed in adult female […] rats (Charles River, Mattawan, MI, United States) housed in a controlled environment (21°C–22°C temperature, 40%–60%, humidity, and 12 h light/dark cycle) with unrestricted access to food and water and conducted according to local regulations by EyeCRO (Ann Arbor, MI, United States).
# […] […] Samples were collected from the tail vein or via heart puncture (terminal) and prepared within 30 min of collection by centrifugation at 3,000 g for 5 min at 4°C and were immediately frozen. RG7774 concentrations in plasma and homogenized tissues were determined using LC-MS/MS. PK parameters were estimated by non-compartmental analysis of plasma data using Phoenix WinNonlin software (Certara, Princeton, NJ, United States).
# T1 sequence (P34972 whole entry): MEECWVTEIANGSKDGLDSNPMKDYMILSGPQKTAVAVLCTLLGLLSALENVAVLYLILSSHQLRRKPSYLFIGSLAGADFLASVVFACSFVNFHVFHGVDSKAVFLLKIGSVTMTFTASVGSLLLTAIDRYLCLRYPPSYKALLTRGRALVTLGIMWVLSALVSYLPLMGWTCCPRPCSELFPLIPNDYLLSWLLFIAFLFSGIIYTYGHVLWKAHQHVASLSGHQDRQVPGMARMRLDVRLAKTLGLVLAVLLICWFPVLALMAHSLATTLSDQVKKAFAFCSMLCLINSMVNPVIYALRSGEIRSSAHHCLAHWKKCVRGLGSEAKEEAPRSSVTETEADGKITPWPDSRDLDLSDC
smiles,measurement,setting,value
"Cn1nnnc1Cn1nnc2c(N3CC[C@H](O)C3)nc(C(C)(C)C)nc21 [RG7774, (S)-1-(5-tert-butyl-3-[(1-methyl-1H-tetrazol-5-yl)methyl]-3H-[1,2,3]triazolo[4,5-d]pyrimidin-7-yl)pyrrolidin-3-ol]",EC50,[1],38.5 ± 15 nM
same,inhibition at 10 µM,[2],-20.5%
same,inhibition at 10 µM,[3],-8.7%
same,"fraction unbound at 5 h, 1000 nM","[4]; C57, pooled plasma, pH 7.4, mouse",0.045
same,"fraction unbound at 5 h, 1000 nM","[4]; pooled plasma, pH 7.4, human",0.178
same,"fraction unbound at 5 h, 1000 nM","[4]; pooled plasma, pH 7.4, rat",0.158
same,GSH (human liver microsomes) adducts,[5],none detected
same,concentrations in retina and choroid/retinal pigment epithelium tissues relative to plasma,[6],in the same range as the total plasma concentration
same,exposure in the vitreous humor relative to plasma,[6],closer to that found in free plasma
